Experimental data reported in publication PMC2662380 (Journal of medicinal chemistry, 2008).

Experiments:
[1] = tested on: MDA-MB-231 breast cancer cell line; assay: induction of cell death, trypan blue exclusion assay; format: cell-based, human; conditions: for induction of cell death (in words): different concentrations, 48 hours
caspase-8, PARP = assay: Western blot analysis of caspase-8 processing and PARP cleavage; conditions: MDA-MB-231, within 24 h

Row | SMILES | induction of cell death (in words) [1] | concentration that effectively induces cell death [1] [nM] | lowest concentration inducing processing of caspase-8 and cleavage of PARP (caspase-8, PARP) [nM]
1 | CN[C@@H](C)C(=O)N[C@H]1Cc2ccccc2[C@H]2CC[C@@H](C(=O)NC(c3ccccc3)c3ccccc3)N2C1=O [Compound 5] | capable of inducing cell death in a dose-dependent manner |  | 
2 | CN[C@@H](C)C(=O)N[C@H]1Cc2ccccc2[C@H]2CC[C@@H](C(=O)N[C@@H]3CCCc4ccccc43)N2C1=O [Compound 6] | most effective | 100 | 100
3 | CN[C@@H](C)C(=O)N[C@H]1Cc2ccccc2[C@H]2CCC[C@@H](C(=O)NC(c3ccccc3)c3ccccc3)N2C1=O [Compound 8] | least effective |  | 
